Results on 21 compounds are retold here after patent US10131644B2, “Aryl sultam derivatives as RORc modulators” (Genentech, Inc., priority 2014, dated 2018).

Molecules are shown by their SMILES.

The assay deals with T1, RORc (Homo sapiens, UniProt P51449).
T1 sequence (P51449 269-508 limits assumed): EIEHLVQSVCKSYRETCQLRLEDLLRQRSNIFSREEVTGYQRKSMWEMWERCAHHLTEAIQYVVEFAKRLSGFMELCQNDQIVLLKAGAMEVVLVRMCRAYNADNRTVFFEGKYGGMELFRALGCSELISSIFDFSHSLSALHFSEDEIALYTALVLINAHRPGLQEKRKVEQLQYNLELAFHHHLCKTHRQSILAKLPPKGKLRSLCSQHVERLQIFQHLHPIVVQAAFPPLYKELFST
The assay can be described thus: In vitro RORc ligand binding assay (25-[3H]hydroxycholesterol displacement). The settings on record: IC50, IC50 values for RORc; unit inferred.
Procedure: This assay was used to determine a compound's potency in inhibiting activity of RORc by determining, Kiapp, IC50, or percent inhibition values.
On day of the assay, 100 uL of 0.05% CHAPS (in deionized H2O) was added to all wells of the GFB Unifilter plate and allowed soak for 1 h. A wash buffer of 50 mM HEPES (pH 7.4), 150 mM NaCl, and 5 mM MgCl2 was prepared to wash the filter plate. To prepare an assay buffer, BSA was added to the wash buffer to reach 0.01% and DTT was added to reach 1 mM.
The 20× compound stocks were diluted in DMSO with Assay Buffer 4-fold to reach 5× the final test concentration in 25% DMSO (10 uL compound+30 uL Assay Buffer). Solutions were mixed by aspiration several times with a pipette set on 50 uL volume. For the assay, 10 uL of 5× compound stock solutions in 25% DMSO were added to the assay plate in duplicate.
For two point screening, 10 mM stock compound solutions were diluted in DMSO to obtain 200 uM (20× the high test concentration) and then diluted 10-fold further to reach 20 uM (20× the low test concentration). The 20× stocks were diluted 4-fold with Assay Buffer (10 uL compound+30 uL Assay Buffer) to reach 5× the test concentrations (50 uM and 5 uM) and 10 uL were added to two assay plates for the duplicate wells. With each concentration tested on 2 plates, each set of 80 compounds used 4 assay plates (1 uM and 10 uM, with n=2).
For 25-hydroxycholesterol in 25% DMSO/75% Assay Buffer; 10 uL per well was used for NSB samples. Wells for Total Binding and No Receptor sample determination contained 10 uL of 25% DMSO/75% Assay Buffer per well.
Add 20 uL to all wells to reach 6 nM final in the assay.
Stock receptor solution was diluted in assay buffer to obtain 1.5 ug/mL in Assay Buffer. 20 uL was added to all wells. For No R samples, 20 uL Assay Buffer was substituted for receptor solution.
Assay plates were 96-well polypropylene V-bottom plates. 10 uL of 5× compound in 25% DMSO/75% Assay Buffer was added to Test wells. 10 uL of 25% DMSO/75% Assay Buffer was added to Total Binding or No Receptor wells. 10 uL of 5 uM 25-hydroxycholesterol in 25% DMSO/75% Assay Buffer was added to NSB wells. […] 20 uL of 1.5 ug/mL RORc receptor was added to wells (or 40 uL Assay Buffer to No R wells). Following addition to the wells, the plates were incubated 3 h at 25° C.
Using a Packard Filtermate Harvester, the filter plate were washed 4 times following transfer of the incubated samples. Plates were dry-filtered completely (2 h at 50° C. or overnight at room temperature). 50 uL Microscint 0 was added to all wells and read on Topcount protocol Inverted.
For NSB wells, 1 uM 25-hydroxycholesterol was also present.
With `C[C@H]1CC[C@H](c2ccccc2)S(=O)(=O)N1Cc1ccc(C2(COCCCO)CCOCC2)cc1F` [Compound 92, 3-[[4-[3-fluoro-4[[(3S,6R)-3-methyl-1,1-dioxo-6-phenyl-thiazinan-2-yl]methyl]phenyl]tetrahydropyran-4-yl]methoxy]propan-1-ol], the concentration for half-maximal inhibition (IC50) came to 75.8 nM.
`C[C@H]1CC[C@H](c2ccccc2)S(=O)(=O)N1Cc1ccc([C@]2(C(=O)O)CC[C@H](n3cnnc3)CC2)cc1` [Example 13, 1-[4-((3S,6R)-3-Methyl-1,1-dioxo-6-phenyl-[1,2]thiazinan-2-ylmethyl)-phenyl]-4-[1,2,4]triazol-4-yl-cyclohexane-carboxylic acid]: the IC50 was 2700 nM.
`C[C@H]1CC[C@H](c2ccccc2)S(=O)(=O)N1Cc1ccc(C2(C(N)=O)CCOCC2)cc1` [Compound 31, 4-[4-((3S,6R)-3-Methyl-1,1-dioxo-6-phenyl-[1,2]thiazinan-2-ylmethyl)-phenyl]-tetrahydro-pyran-4-carboxylic acid amide] returned an IC50 of 420 nM. This IC50 lies about 6.4-fold lower than the previous one.
`C[C@H]1CC[C@H](c2ccccc2)S(=O)(=O)N1Cc1cc(F)c(C2(OCC(O)CO)CCOCC2)cc1F` (stereo partly drawn) [Compound 151, 3-[4-[2,5-difluoro-4-[[(3S,6R)-3-methyl-1,1-dioxo-6-phenyl-thiazinan-2-yl]methyl]phenyl]tetrahydropyran-4-yl]oxypropane-1,2-diol]: the IC50 was found to be 7.8 nM.
Consider `C[C@H]1CC[C@H](c2ccccc2)S(=O)(=O)N1Cc1cc(F)c(C2(C(=O)NCC#N)CC2)cc1F` [Compound 128, N-(cyanomethyl)-1-[2,5-difluoro-4-[[(3S,6R)-3-methyl-1,1-dioxo-6-phenyl-thiazinan-2-yl]methyl]phenyl]cyclopropane-carboxamide], for which the concentration for half-maximal inhibition (IC50) was 390 nM.
For the compound `CC(=O)NCC1(c2ccc(CN3[C@@H](C)CC[C@H](c4ccccc4)S3(=O)=O)c(F)c2)CCOCC1` [Compound 70, N-[[4-[3-fluoro-4-[[(3S,6R)-3-methyl-1,1-dioxo-6-phenyl-thiazinan-2-yl]methyl]phenyl]tetrahydropyran-4-yl]methyl]acetamide], the concentration for half-maximal inhibition (IC50) came to 148 nM.
With `C[C@H]1CC[C@H](c2ccccc2)S(=O)(=O)N1Cc1cc(F)c(C2(CO)CCC(n3cnnc3)CC2)cc1F` (stereo partly drawn) [Compound 133, [1-[2,5-difluoro-4-[[(3S,6R)-3-methyl-1,1-dioxo-6-phenyl-thiazinan-2-yl]methyl]phenyl]-4-(1,2,4-triazol-4-yl)cyclohexyl]methanol] the figure was 5.2 nM; with `C[C@H]1CC[C@H](c2ccccc2)S(=O)(=O)N1Cc1ccc(C2(C(=O)NCC(C)(C)O)CCOCC2)cc1F` [Compound 62, 4-[3-fluoro-4-[[(3S,6R)-3-methyl-1,1-dioxo-6-phenyl-thiazinan-2-yl]methyl]phenyl]-N-(2-hydroxy-2-methyl-propyl)tetrahydropyran-4-carboxamide], 149 nM; with `C[C@H]1CC[C@H](c2ccccc2)S(=O)(=O)N1Cc1ccc(C2(C(=O)NCC(N)=O)CCOCC2)cc1F` [Compound 59, N-(2-amino-2-oxo-ethyl)-4-[3-fluoro-4-[[(3S,6R)-3-methyl-1,1-dioxo-6-phenyl-thiazinan-2-yl]methyl]phenyl]tetrahydropyran-4-carboxamide], 268 nM.
On to `CCOC(=O)CCC1(c2ccc(CN3[C@@H](C)CC[C@H](c4ccccc4)S3(=O)=O)c(F)c2)CCOCC1` [Compound 79, ethyl 3-[4-[3-fluoro-4-[[(3S,6R)-3-methyl-1,1-dioxo-6-phenyl-thiazinan-2-yl]methyl]phenyl]tetrahydropyran-4-yl]propanoate], for which the IC50 was found to be 4.9 nM.
Regarding `C[C@H]1CC[C@H](c2ccccc2)S(=O)(=O)N1Cc1ccc(C2(CC#N)CCOCC2)cc1F` [Compound 77, 2-[4-[3-fluoro-4-[[(3S,6R)-3-methyl-1,1-dioxo-6-phenyl-thiazinan-2-yl]methyl]phenyl]tetrahydropyran-4-yl]acetonitrile], the half-inhibitory concentration (IC50) was 31.2 nM.
The compound `C[C@H]1CC[C@H](c2ccccc2)S(=O)(=O)N1Cc1ccc(C2(C(N)=O)CCOCC2)cc1F` [Compound 67, 4-[3-fluoro-4-[[(3S,6R)-3-methyl-1,1-dioxo-6-phenyl-thiazinan-2-yl]methyl]phenyl]tetrahydropyran-4-carboxamide] showed an IC50 of 18 nM.
`C[C@H]1CC[C@H](c2ccccc2)S(=O)(=O)N1Cc1ccc(C2(C#N)CCC3(CC2)OCCO3)cc1F` [Example 21, 8-[3-Fluoro-4-((3S,6R)-3-methyl-1,1-dioxo-6-phenyl-[1,2]thiazinan-2-ylmethyl)-phenyl]-1,4-dioxa-spiro[4.5]decane-8-carbonitrile] yielded an IC50 of 35 nM.
Compound `C[C@H]1CC[C@H](c2ccccc2)S(=O)(=O)N1Cc1ccc(C2(C(=O)N(C)C)CCOCC2)cc1` [Compound 35, 4-[4-((3S,6R)-3-Methyl-1,1-dioxo-6-phenyl-[1,2]thiazinan-2-ylmethyl)-phenyl]-tetrahydro-pyran-4-carboxylic acid dimethylamide] yielded an IC50 of 820 nM.
In the case of `C[C@H]1CC[C@H](c2ccccc2)S(=O)(=O)N1Cc1cc(F)c(C2(C(N)=O)CC2)cc1F` [Compound 125, 1-[2,5-difluoro-4-[[(3S,6R)-3-methyl-1,1-dioxo-6-phenyl-thiazinan-2-yl]methyl]phenyl]cyclopropane-carboxamide], the IC50 is 346 nM.
In turn, `C[C@H]1CC[C@H](c2ccccc2)S(=O)(=O)N1Cc1cc(F)c(C2(OCC(=O)NCCO)COC2)cc1F` [Compound 176, 2-[3-[2,5-difluoro-4-[[(3S,6R)-3-methyl-1,1-dioxo-6-phenyl-thiazinan-2-yl]methyl]phenyl]oxetan-3-yl]oxy-N-(2-hydroxyethyl)acetamide] returned a half-maximal inhibitory concentration (IC50) of 2.5 nM.
`CC(=O)N1CC(OCC(N)=O)(c2cc(F)c(CN3[C@@H](C)CC[C@H](c4ccccc4)S3(=O)=O)cc2F)C1` [Compound 175, 2-[1-acetyl-3-[2,5-difluoro-4-[[(3S,6R)-3-methyl-1,1-dioxo-6-phenyl-thiazinan-2-yl]methyl]phenyl]azetidin-3-yl]oxyacetamide] yielded an IC50 of 4.9 nM.
With `COC(=O)C1(c2cc(F)c(CN3[C@@H](C)CC[C@H](c4ccccc4)S3(=O)=O)cc2F)CCC(=O)CC1` [Compound 120, methyl 1-[2,5-difluoro-4-[[(3S,6R)-3-methyl-1,1-dioxo-6-phenyl-thiazinan-2-yl]methyl]phenyl]-4-oxo-cyclohexanecarboxylate] the figure was 6.1 nM; with `CCOC(=O)COCC1(c2ccc(CN3[C@@H](C)CC[C@H](c4ccccc4)S3(=O)=O)c(F)c2)CCOCC1` [Compound 104, ethyl 2-[[4-[3-fluoro-4-[[(3S,6R)-3-methyl-1,1-dioxo-6-phenyl-thiazinan-2-yl]methyl]phenyl]tetrahydropyran-4-yl]methoxy]acetate], 23.8 nM; with `C[C@H]1CC[C@H](c2ccccc2)S(=O)(=O)N1Cc1ccc(C2(C(N)=O)CC2)cc1F` [Compound 196, 1-[3-fluoro-4-[[(3S,6R)-3-methyl-1,1-dioxo-6-phenyl-thiazinan-2-yl]methyl]phenyl]cyclopropanecarboxamide], 1080 nM.
For the compound `C[C@H]1CC[C@H](c2ccccc2)S(=O)(=O)N1Cc1cc(F)c(C2(N)COC2)cc1F` [Compound 190, 3-[2,5-difluoro-4-[[(3S,6R)-3-methyl-1,1-dioxo-6-phenyl-thiazinan-2-yl]methyl]phenyl]oxetan-3-amine], the IC50 was 71.5 nM. This IC50 lies about 15-fold lower than the previous one.

By IC50 is commonly meant the concentration needed to halve the response being measured.
